From US11352350B2, “IRAK degraders and uses thereof” (Kymera Therapeutics, Inc., priority 2018, dated 2022) come the findings set out here.

The structures appear in SMILES notation. Where two headings read alike, the source gives them in different places.

Assay [1] deals with OCI-LY10. As to the kind of experiment: CTG Cell Viability Assay - OCI-LY10. The assay is classed as cell-based, human. The following applies: Homo sapiens, OCI-Ly10, 96 h, OCI-LY10, 4 days; read-out: CTG Cell Viability Assay - OCI-LY10: Average external-IC50. The procedure: Compound-mediated viability effect on OCI-LY10 or TMD8 was quantitatively determined using the CellTiter-Glo® Luminescent Cell Viability Assay kit from Promega (Catalog number G7570) following manufacturer's recommended procedures. […] Compounds were then added to the assay plate with final top concentration of 10 μM and 1:3 dilution series with total of 9 doses. The final DMSO concentration was normalized to 0.2%. The assay plates were incubated at 37° C. for 4 days under 5% CO2. Then the assay plate was equilibrated at room temperature for 10 minutes. […] The data was then analyzed by software Prism 7.0 from GraphPad and the dose response curves were fit using a three-parameter logistic equation to calculate IC50.

Assay [2] has as its target IRAK4 (Homo sapiens (Human), UniProt Q9NWZ3). Put plainly: IRAK4 MSD degradation in OCI-LY10. The assay is classed as cell-based. Put shortly:
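OCI-LY10 cells treated with 8-point 1:3 dilutions (top 1 to 10 μM final) for 4 to 24 h at 37° C. Lysate IRAK4 measured by MSD sandwich immunoassay (2H9 capture, Y279 detection, SULFO-TAG anti-rabbit). DC50 from three-parameter logistic fit.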

The mark [3] stands for this setting: OCI-LY10, 4 hrs, MSD, read-out: IRAK4 MSD degradation in OCI-LY10 at 4 hrs: Average external-Abs DC50.
The mark [4] stands for this setting: OCI-LY10, 24 hrs, MSD, read-out: IRAK4 MSD degradation in OCI-LY10 at 24 hrs: Average external-Abs DC50.

Sequence of IRAK4 (Q9NWZ3 whole entry): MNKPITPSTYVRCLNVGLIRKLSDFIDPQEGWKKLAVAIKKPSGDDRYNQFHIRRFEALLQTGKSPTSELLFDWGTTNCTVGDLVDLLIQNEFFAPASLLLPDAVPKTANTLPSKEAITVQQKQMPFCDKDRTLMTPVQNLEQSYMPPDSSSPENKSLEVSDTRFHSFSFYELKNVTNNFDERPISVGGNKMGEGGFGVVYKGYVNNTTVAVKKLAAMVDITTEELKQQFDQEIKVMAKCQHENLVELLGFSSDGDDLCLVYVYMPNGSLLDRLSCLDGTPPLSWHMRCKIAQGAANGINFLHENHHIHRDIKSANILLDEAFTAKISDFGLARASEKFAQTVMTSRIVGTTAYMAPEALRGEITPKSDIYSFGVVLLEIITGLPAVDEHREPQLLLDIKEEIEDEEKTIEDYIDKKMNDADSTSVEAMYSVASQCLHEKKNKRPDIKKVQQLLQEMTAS

In the case of `CC([C@H]1CC[C@H](n2cc(NC(=O)c3coc(-c4ccnc(NCC5CC5)c4)n3)c(C(F)F)n2)CC1)N1CCC(OCCCc2cccc3c2n(C)c(=O)n3C2CCC(=O)NC2=O)CC1` (stereo partly shown) [I-301, 2-[2-(Cyclopropylmethylamino)-4-pyridyl]-N-[3-(difluoromethyl)-1-[4-[1-[4-[3-[1-(2,6-dioxo-3-piperidyl)-3-methyl-2-oxo-benzimidazol-4-yl]propoxy]-1-piperidyl]ethyl]cyclohexyl]pyrazol-4-yl] oxazole-4-carboxamide], in assay [1], the IC50 (in general, the point on the concentration scale where inhibition reaches its midpoint) is less than 0.05 µM. Further, the DC50 (in general, the concentration at which degradation of the target reaches its halfway point) in assay [2] (setting [3]) is 0.01 to 0.1 µM.
Turning to `Cn1c(=O)n(C2CCC(=O)NC2=O)c2ccc(CN3CCC(CN4CCC(n5cc(NC(=O)c6coc(-c7ccnc(NCC8CC8)c7)n6)c(C(F)F)n5)CC4)CC3)cc21` (stereo not shown) [I-182], the IC50 in assay [1] was greater than 1 µM. Also, in assay [2] (setting [3]), the DC50 is 0.1 to 1 µM.
`CC[C@@H]1[C@H](F)C(=O)N[C@@H]1COc1ncc(C#C[C@H]2CC[C@@H](CN(C)CCCOCCCc3ccc4c(c3)n(C)c(=O)n4C3CCC(=O)NC3=O)CC2)c2cc(C(N)=O)c(OC)cc12` (stereo partly shown) [I-230]: the concentration for half-maximal inhibition (IC50) in assay [1] was greater than 1 µM. Moreover, the half-maximal degradation concentration (DC50) in assay [2] (setting [3]) and in assay [2] (setting [4]) was 0.1 to 1 µM in each case.
For the compound `CN(C[C@H]1CC[C@H](n2cc(NC(=O)c3cnn4ccc(N5CCOCC5)nc34)c(C(F)F)n2)CC1)C1CCC(Nc2cccc3c2C(=O)N(C2CCC(=O)NC2=O)C3=O)CC1` (stereo partly shown) [I-221], the half-inhibitory concentration (IC50) in assay [1] was in the range of 0.05 to 0.1 µM. Also, the 50% degradation concentration (DC50) in assay [2] (setting [3]) is less than 0.01 µM.
Regarding `CN(CC1CCC(n2cc(NC(=O)c3cnn4ccc(N5C[C@H]6C[C@@H]5CO6)nc34)c(C(F)F)n2)CC1)[C@H]1C[C@H](Nc2cccc3c2C(=O)N(C2CCC(=O)NC2=O)C3=O)C1` (stereo partly shown) [I-457], the IC50 in assay [1] is greater than 1 µM. Further, the DC50 in assay [2] (OCI-LY10, 4 hrs, read-out: IRAK4 MSD degradation in OCI-LY10 at 4 hrs: DC50) was 0.1 to 1 µM; in assay [2] (OCI-LY10, 24 hrs, read-out: IRAK4 MSD degradation in OCI-LY10 at 24 hrs: DC50), greater than 1 µM.
As for `Cn1c(=O)n(C2CCC(=O)NC2=O)c2ccc(CCCOC3CCN(C[C@H]4CC[C@H](n5cc(NC(=O)c6cnn7ccc(N[C@@H]8CCCC[C@@H]8O)nc67)c(C(F)F)n5)CC4)CC3)cc21` (stereo partly shown) [I-280], the IC50 in assay [1] is greater than 1 µM. Further, the DC50 in assay [2] (setting [3]) lay within 0.01 to 0.1 µM.
As for `CN1C(=O)C(C2CCC(=O)NC2=O)c2cccc(CCCOC3CCN(C[C@H]4CC[C@H](n5cc(NC(=O)c6cnn7ccc(NCCC(C)(C)O)nc67)c(C(F)F)n5)CC4)CC3)c21` (stereo partly shown) [I-288], in assay [1], the IC50 was greater than 1 µM. Further, the DC50 in assay [2] (setting [3]) is less than 0.01 µM.
For the compound `O=C1CCC(N2C(=O)c3cccc(CCCOC4CCN(C[C@H]5CC[C@H](n6cc(NC(=O)c7cnn8ccc(N9CCOCC9)nc78)c(C(F)F)n6)CC5)CC4)c3C2=O)C(=O)N1` (stereo partly shown) [I-207], in assay [1], the IC50 was greater than 1 µM. In addition, the DC50 in assay [2] (setting [3]) is 0.01 to 0.1 µM.
With `CN[C@@H](C)C(=O)N[C@H](C(=O)N1Cc2cc(OCCOCCOCCNC[C@H]3CC[C@H](n4cc(NC(=O)c5coc(-c6ccnc(NCC7CC7)c6)n5)c(C(F)F)n4)CC3)ccc2C[C@H]1C(=O)N[C@@H]1CCCc2ccccc21)C(C)(C)C` [I-161], the IC50 in assay [1] is greater than 1 µM. The DC50 in assay [2] (setting [3]) and in assay [2] (setting [4]) was greater than 1 µM throughout.
On to `NC(=O)c1nn([C@H]2CC[C@@H](C(=O)NCCOCCOCCNc3cccc4c3C(=O)N(C3CCC(=O)NC3=O)C4=O)CC2)cc1NC(=O)c1coc(-c2ccnc(NCC(F)(F)F)c2)n1` (single isomer, unassigned) [I-14, N-(3-carbamoyl-1-((1s,4s)-4-((2-(2-(2-((2-(2,6-dioxopiperidin-3-yl)-1,3-dioxoisoindolin-4-yl)amino)ethoxy)ethoxy)ethyl)carbamoyl)cyclohexyl)-1H-pyrazol-4-yl)-2-(2-((2,2,2-trifluoroethyl)amino)pyridin-4-yl)oxazole-4-carboxamide], for which the IC50 in assay [1] is 0.1 to 0.5 µM. For the same compound, the DC50 in assay [2] (setting [3]) lay within 0.01 to 0.1 µM.
On to `O=C1CCC(N2Cc3c(NCC4CCN(C[C@H]5CC[C@H](C6N=C(NC(=O)c7cnn8ccc(N9C[C@H]%10C[C@@H]9CO%10)nc78)C(C(F)F)=N6)CC5)CC4)cccc3C2=O)C(=O)N1` (stereo partly shown) [I-380], for which the IC50 in assay [1] is greater than 1 µM. In addition, the DC50 lay within 0.1 to 1 µM in assay [2] (setting [3]) and 0.01 to 0.1 µM in assay [2] (setting [4]).
`Cn1c(=O)n(C2CCC(=O)NC2=O)c2ccc(CN3CCC(CCN4CCC(n5cc(NC(=O)c6coc(-c7ccnc(NCC8CC8)c7)n6)c(C(F)F)n5)CC4)CC3)cc21` (stereo not shown) [I-181]: the IC50 in assay [1] fell in the range of 0.1 to 0.5 µM. Besides, the half-maximal degradation concentration (DC50) in assay [2] (setting [3]) lay within 0.1 to 1 µM.
